Key:
Assay type in all cases: biochemical
[1] = biological target: Aβ (1–42) (Homo sapiens, UniProt P05067); experiment: Self-mediated Aβ
[2] = biological target: β-secretase (Homo sapiens, UniProt P56817); experiment: β-secretase inhibition assay
[3] = biological target: butylcholinesterase (BuChE) (Homo sapiens, UniProt P06276); experiment: BChE inhibition assay
[4] = biological target: Acetylcholinesterase (AChE) (Homo sapiens, UniProt P22303); experiment: AChE inhibition assay; conditions: for Selectivity Index (SI): determined by BuChE/AChE (IC50 ratio)
Acetylcholinesterase (AChE), sequence (P22303 32-614, species assumed): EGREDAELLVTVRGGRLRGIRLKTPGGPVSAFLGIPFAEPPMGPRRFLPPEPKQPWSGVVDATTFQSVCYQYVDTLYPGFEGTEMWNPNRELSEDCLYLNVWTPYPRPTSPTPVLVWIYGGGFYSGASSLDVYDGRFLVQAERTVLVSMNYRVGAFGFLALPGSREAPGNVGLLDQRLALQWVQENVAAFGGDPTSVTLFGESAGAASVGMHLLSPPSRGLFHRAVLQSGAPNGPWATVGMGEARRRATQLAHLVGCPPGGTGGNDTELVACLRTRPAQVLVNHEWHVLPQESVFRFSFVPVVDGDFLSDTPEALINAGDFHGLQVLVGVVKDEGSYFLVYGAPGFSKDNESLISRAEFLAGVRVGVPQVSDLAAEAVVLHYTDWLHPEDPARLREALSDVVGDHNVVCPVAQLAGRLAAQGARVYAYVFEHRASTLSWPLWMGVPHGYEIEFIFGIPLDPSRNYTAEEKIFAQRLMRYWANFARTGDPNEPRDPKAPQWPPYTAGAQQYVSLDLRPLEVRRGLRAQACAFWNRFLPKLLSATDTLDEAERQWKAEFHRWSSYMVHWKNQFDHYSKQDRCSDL

butylcholinesterase (BuChE), sequence (P06276 29-602): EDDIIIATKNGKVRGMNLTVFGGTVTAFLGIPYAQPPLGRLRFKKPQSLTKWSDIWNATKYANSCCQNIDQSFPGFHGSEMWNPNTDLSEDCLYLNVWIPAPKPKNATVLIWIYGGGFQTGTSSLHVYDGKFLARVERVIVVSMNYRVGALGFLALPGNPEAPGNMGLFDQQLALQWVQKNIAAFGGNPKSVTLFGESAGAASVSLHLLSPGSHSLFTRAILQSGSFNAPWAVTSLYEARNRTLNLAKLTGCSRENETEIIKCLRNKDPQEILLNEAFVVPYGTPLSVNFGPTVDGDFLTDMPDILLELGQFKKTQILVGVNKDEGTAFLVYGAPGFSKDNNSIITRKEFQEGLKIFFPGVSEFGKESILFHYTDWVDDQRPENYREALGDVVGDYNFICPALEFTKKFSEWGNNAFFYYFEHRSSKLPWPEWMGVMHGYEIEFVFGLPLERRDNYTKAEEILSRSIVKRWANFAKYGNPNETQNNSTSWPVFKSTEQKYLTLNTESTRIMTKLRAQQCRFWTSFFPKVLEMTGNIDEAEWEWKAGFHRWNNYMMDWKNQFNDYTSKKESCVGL
Aβ (1–42), sequence (P05067 672-713): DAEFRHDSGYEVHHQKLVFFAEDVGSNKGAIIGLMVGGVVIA
β-secretase, sequence (P56817 46-501): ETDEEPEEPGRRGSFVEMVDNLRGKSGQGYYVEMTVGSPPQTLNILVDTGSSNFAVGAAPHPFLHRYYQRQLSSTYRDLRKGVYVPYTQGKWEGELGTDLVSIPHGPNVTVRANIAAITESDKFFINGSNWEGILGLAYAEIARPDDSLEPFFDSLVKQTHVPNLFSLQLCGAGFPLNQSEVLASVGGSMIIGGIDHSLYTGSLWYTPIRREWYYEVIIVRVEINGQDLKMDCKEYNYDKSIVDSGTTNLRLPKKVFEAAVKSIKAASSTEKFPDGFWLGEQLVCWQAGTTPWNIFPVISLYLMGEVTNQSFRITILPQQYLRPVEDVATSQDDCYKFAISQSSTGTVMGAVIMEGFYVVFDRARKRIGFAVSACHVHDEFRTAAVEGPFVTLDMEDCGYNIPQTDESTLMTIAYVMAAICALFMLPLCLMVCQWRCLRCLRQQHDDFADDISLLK

In the case of Cc1ccc(CN2CCC(NCCOc3ccc(C(=O)/C=C/c4ccccc4)cc3)CC2)cc1 [8g, (E)-1-(4-(2-((1-(4-methylbenzyl)piperidin-4-yl)amino)ethoxy)phenyl)-3-phenylprop-2-en-1-one], the IC50 [1] is reported as 18.2 ± 2.3 µM, the IC50 [2] is reported as 23.1 ± 1.8 µM and the IC50 [3] is reported as 3.23 ± 0.12 µM. For the same molecule, the IC50 [4] was 1.12 ± 0.13 µM and the “Selectivity Index (SI)” value [4] was 2.88.
O=C(/C=C/c1ccccc1)c1ccc(OCCNC2CCN(Cc3ccc([N+](=O)[O-])cc3)CC2)cc1 [8e, (E)-1-(4-(2-((1-(4-nitrobenzyl)piperidin-4-yl)amino)ethoxy)phenyl)-3-phenylprop-2-en-1-one] was tested, and the IC50 [3] was 25 ± 0.31 µM, the IC50 [4] was 28.62 ± 0.22 µM and the “Selectivity Index (SI)” value [4] was 0.87.
With COc1ccc(CN2CCC(NCCOc3ccc(C(=O)/C=C/c4ccccc4)cc3)CC2)cc1 [8f, (E)-1-(4-(2-((1-(4-methoxybenzyl)piperidin-4-yl)amino)ethoxy)phenyl)-3-phenylprop-2-en-1-one] the IC50 [3] was 9.45 ± 0.25 µM, the “fold less active against BuChE than the parent compound (8g)” value ([3]; relative to 8g) was “approximately 3 fold” and the IC50 [4] was 4.22 ± 0.34 µM. For the same molecule, the “Selectivity Index (SI)” value [4] was 2.23 and the “fold less active against AChE than the parent compound (8g)” value ([4]; relative to 8g) was “approximately 3 fold”.
In the case of O=C(/C=C/c1ccccc1)c1ccc(OCCNC2CCN(Cc3ccc(Cl)c(Cl)c3)CC2)cc1 [8h, (E)-1-(4-(2-((1-(3,4-dichlorobenzyl)piperidin-4-yl)amino)ethoxy)phenyl)-3-phenylprop-2-en-1-one], the “Selectivity Index (SI)” value [4] is reported as 1.06.
O=C(/C=C/c1ccccc1)c1ccc(OCCNC2CCN(Cc3ccc(Br)cc3)CC2)cc1 [8c, (E)-1-(4-(2-((1-(4-bromobenzyl)piperidin-4-yl)amino)ethoxy)phenyl)-3-phenylprop-2-en-1-one] was tested, and the IC50 [3] was 28.4 ± 0.42 µM, the IC50 [4] was 18.1 ± 0.33 µM and the “Selectivity Index (SI)” value [4] was 1.56.
O=C(/C=C/c1ccccc1)c1ccc(OCCNC2CCN(Cc3ccc(Cl)cc3)CC2)cc1 [8b, (E)-1-(4-(2-((1-(4-chlorobenzyl)piperidin-4-yl)amino)ethoxy)phenyl)-3-phenylprop-2-en-1-one] was tested, and the IC50 [3] was 19.45 ± 0.15 µM, the IC50 [4] was 10 ± 0.54 µM and the “Selectivity Index (SI)” value [4] was 1.93.
O=C(/C=C/c1ccccc1)c1ccc(OCCNC2CCN(Cc3ccc(F)cc3)CC2)cc1 [8d, (E)-1-(4-(2-((1-(4-fluorobenzyl)piperidin-4-yl)amino)ethoxy)phenyl)-3-phenylprop-2-en-1-one] was tested, and the IC50 [3] was 26.5 ± 0.28 µM, the IC50 [4] was 14.2 ± 0.15 µM and the “Selectivity Index (SI)” value [4] was 1.86.
In the case of O=C(/C=C/c1ccccc1)c1ccc(OCCNC2CCN(Cc3ccccc3)CC2)cc1 [8a, (E)-1-(4-(2-((1-benzylpiperidin-4-yl)amino)ethoxy)phenyl)-3-phenylprop-2-en-1-one], the IC50 [3] is reported as 21.72 ± 0.11 µM, the IC50 [4] is reported as 32.34 ± 0.26 µM and the “Selectivity Index (SI)” value [4] is reported as 0.67.

From paper PMC5513680 (Medical Science Monitor : International Medical Journal of …, 2017)
